Assay results as given in patent US12227511B2, “Bicyclic compounds as kinase modulators, methods and uses thereof” (Agency for Science, Technology and Research, priority 2018, dated 2025).
Counter-ions that a name gives are not always drawn.

tested on: HCCLM3 cells; assay: GI50 in HCCLM3 cells, cell viability by MTS assay; type: cell-based; conditions: Homo sapiens, 72 hours incubation, triplicates, read-out: HCCLM3 activity range (GI50)
Protocol: To investigate the effects of compounds on hepatocellular carcinoma (HCC) cell viability, HCCLM3 cells (HCC cells with high metastatic potential) were incubated with increasing concentrations of test compounds for 72 hours. Cell viability was evaluated at the end of incubation period by MTS assay. […] All samples were evaluated in triplicates.
As set forth in Table 1 below, GI50 values are defined as follows: GI50≤10 μM (+++); GI50>10 μM and ≤20 μM (++); GI50>20 μM (+).

SMILES	GI50 [µM]
COc1cc2nccc(Oc3ccc(NC(=O)C45CC(C(=O)NC6CC6)(C4)C5)cc3)c2cc1OC [Compound 36, N1-cyclopropyl-N3-(4-((6,7-dimethoxyquinolin-4-yl)oxy)phenyl)bicyclo[1.1.1]pentane-1,3-dicarboxamide]	> 20
COc1cc2nccc(Oc3ccc(NC(=O)C4(C(=O)NC56CC(C(N)=O)(C5)C6)CC4)cc3)c2cc1OC [Compound 7, N-(3-carbamoylbicyclo[1.1.1]pentan-1-yl)-N-(4-((6,7-dimethoxyquinolin-4-yl)oxy)phenyl)cyclopropane-1,1-dicarboxamide]	> 20
COc1cc2nccc(Oc3ccc(NC(=O)C4(C(=O)NC5C[C@H]6CC[C@@H](C5)N6C)CC4)cc3)c2cc1OC (stereo partly drawn) [Compound 23, ENDO-N-(4-((6,7-dimethoxyquinolin-4-yl)oxy)phenyl)-N-((1R,3r,5S)-8-methyl-8-azabicyclo[3.2.1]octan-3-yl)cyclopropane-1,1-dicarboxamide]	> 20
COc1cc2nccc(Oc3ccc(NC(=O)C4(C(=O)N5[C@@H]6CC[C@H]5C[C@@H](OC)C6)CC4)cc3)c2cc1OC [Compound 19, N-(4-((6,7-dimethoxyquinolin-4-yl)oxy)phenyl)-1-((1R,3r,5S)-3-methoxy-8-azabicyclo[3.2.1]octane-8-carbonyl)cyclopropane-1-carboxamide]	> 20
COC(=O)C12CC(NC(=O)C3(C(=O)Nc4ccc(Oc5ccnc6cc(OC)c(OC)cc56)cc4)CC3)(C1)C2 [Compound 31, methyl 3-(1-((4-((6,7-dimethoxyquinolin-4-yl)oxy)phenyl)carbamoyl)cyclopropane-1-carboxamido)bicyclo[1.1.1]pentane-1-carboxylate]	≤ 10
COc1cc2nccc(Oc3ccc(NC(=O)C4(C(=O)NC56CC(C(=O)N(C)C)(C5)C6)CC4)cc3)c2cc1OC [Compound 8, N-(4-((6,7-dimethoxyquinolin-4-yl)oxy)phenyl)-N-(3-(dimethylcarbamoyl)bicyclo[1.1.1]pentan-1-yl)cyclopropane-1,1-dicarboxamide]	> 20
COc1cc2nccc(Oc3ccc(NC(=O)C4(C(=O)N5CC6CC6C5)CC4)cc3)c2cc1OC (stereo not shown) [Compound 27, 1-(3-azabicyclo[3.1.0]hexane-3-carbonyl)-N-(4-((6,7-dimethoxyquinolin-4-yl)oxy)phenyl)cyclopropane-1-carboxamide]	> 20
COc1cc2nccc(Oc3ccc(NC(=O)C4(C(=O)NC56CC5CN(C(C)=O)C6)CC4)cc3)c2cc1OC (stereo not shown) [Compound 18, N-(3-acetyl-3-azabicyclo[3.1.0]hexan-1-yl)-N-(4-((6,7-dimethoxyquinolin-4-yl)oxy)phenyl)cyclopropane-1,1-dicarboxamide]	> 20
COc1cc2nccc(Oc3ccc(NC(=O)C45CC(C(=O)NC67CC(F)(C6)C7)(C4)C5)cc3)c2cc1OC [Compound 3, N^1-(4-((6,7-dimethoxyquinolin-4-yl)oxy)phenyl)-N3-(3-fluorobicyclo[1.1.1]pentan-1-yl)bicyclo[1.1.1]pentane-1,3-dicarboxamide]	> 20
COc1cc2nccc(Oc3ccc(NC(=O)C4(C(=O)N5[C@@H]6CC[C@H]5C[C@H](C#N)C6)CC4)cc3)c2cc1OC [Compound 21, EXO-1-(3-cyano-8-azabicyclo[3.2.1]octane-8-carbonyl)-N-(4-((6,7-dimethoxyquinolin-4-yl)oxy)phenyl)cyclopropane-1-carboxamide]	> 20
COc1cc2nccc(Oc3ccc(NC(=O)C4(C(=O)NC56CNCC5C6)CC4)cc3)c2cc1OC (stereo not shown) [Compound 17, N-(3-azabicyclo[3.1.0]hexan-1-yl)-N-(4-((6,7-dimethoxyquinolin-4-yl)oxy)phenyl)cyclopropane-1,1-dicarboxamide]	> 20

Now from value to molecule:

GI50 [µM]	SMILES
> 20	COC(=O)C12CCC(NC(=O)C3(C(=O)Nc4ccc(Oc5ccnc6cc(OC)c(OC)cc56)cc4)CC3)(CC1)CC2 [Compound 15, methyl 4-(1-((4-((6,7-dimethoxyquinolin-4-yl)oxy)phenyl)carbamoyl)cyclopropane-1-carboxamido)bicyclo[2.2.2]octane-1-carboxylate]
≤ 10	COc1cc2nccc(Oc3ccc(NC(=O)C4(C(=O)NC56CC(C5)C6)CC4)cc3)c2cc1OC [Compound 1, N-(bicyclo[1.1.1]pentan-1-yl)-N-(4-(6,7-dimethoxyquinolin-4-yloxy)phenyl)cyclopropane-1,1-dicarboxamide]
> 20	COc1cc2nccc(Oc3ccc(NC(=O)C4(C(=O)NC56CC(NC(=O)C7(C(=O)Nc8ccc(Oc9ccnc%10cc(OC)c(OC)cc9%10)cc8)CC7)(C5)C6)CC4)cc3)c2cc1OC [Compound 14, N,N′-(bicyclo[1.1.1]pentane-1,3-diyl)bis(N-(4-((6,7-dimethoxyquinolin-4-yl)oxy)phenyl)cyclopropane-1,1-dicarboxamide)]
10 to 20	COc1cc2nccc(Oc3ccc(NC(=O)C4(C(=O)NC56CC(C#N)(C5)C6)CC4)cc3)c2cc1OC [Compound 33, N-(3-cyanobicyclo[1.1.1]pentan-1-yl)-N-(4-((6,7-dimethoxyquinolin-4-yl)oxy)phenyl)cyclopropane-1,1-dicarboxamide]
> 20	COc1cc2nccc(Oc3ccc(NC(=O)C45CC(C(=O)N6CC7CC7C6)(C4)C5)cc3)c2cc1OC (stereo not shown) [Compound 35, 3-(3-azabicyclo[3.1.0]hexane-3-carbonyl)-N-(4-((6,7-dimethoxyquinolin-4-yl)oxy)phenyl)bicyclo[1.1.1]pentane-1-carboxamide]
≤ 10	COc1cc2nccc(Oc3ccc(NC(=O)C4(C(=O)NC56CC(C(F)(F)F)(C5)C6)CC4)cc3)c2cc1OC [Compound 11, N-(4-((6,7-dimethoxyquinolin-4-yl)oxy)phenyl)-N-(3-(trifluoromethyl)bicyclo[1.1.1]pentan-1-yl)cyclopropane-1,1-dicarboxamide]
> 20	COc1cc2nccc(Oc3ccc(NC(=O)C4(C(=O)N5C[C@@H]6COC[C@@H](C6)C5)CC4)cc3)c2cc1OC [Compound 20, 1-((1R,5S)-3-oxa-7-azabicyclo[3.3.1]nonane-7-carbonyl)-N-(4-((6,7-dimethoxyquinolin-4-yl)oxy)phenyl)cyclopropane-1-carboxamide]
≤ 10	COc1cc2nccc(Oc3ccc(NC(=O)C4(C(=O)NC56CC(F)(C5)C6)CC4)cc3)c2cc1OC [Compound 4, N-(4-((6,7-dimethoxyquinolin-4-yl)oxy)phenyl)-N-(3-fluorobicyclo[1.1.1]pentan-1-yl)cyclopropane-1,1-dicarboxamide]
> 20	COc1cc2nccc(Oc3ccc(NC(=O)C4(C(=O)NC56CC(C(=O)O)(C5)C6)CC4)cc3)c2cc1OC [Compound 29, 3-(1-((4-((6,7-dimethoxyquinolin-4-yl)oxy)phenyl)carbamoyl)cyclopropane-1-carboxamido)bicyclo[1.1.1]pentane-1-carboxylic acid hydrochloride]
≤ 10	COc1cc2nccc(Oc3ccc(NC(=O)C4(C(=O)NC56CCC(CC5)C6)CC4)cc3)c2cc1OC [Compound 25, N-((1s,4s)-bicyclo[2.2.1]heptan-1-yl)-N-(4-((6,7-dimethoxyquinolin-4-yl)oxy)phenyl)cyclopropane-1,1-dicarboxamide]
> 20	COc1cc2nccc(Oc3ccc(NC(=O)C45CC(C(=O)NC67CCC(CC6)C7)(C4)C5)cc3)c2cc1OC [Compound 34, N1-((1s,4s)-bicyclo[2.2.1]heptan-1-yl)-N3-(4-((6,7-dimethoxyquinolin-4 yl)oxy)phenyl)bicyclo[1.1.1]pentane-1,3-dicarboxamide]
10 to 20	COCC12CC(NC(=O)C3(C(=O)Nc4ccc(Oc5ccnc6cc(OC)c(OC)cc56)cc4)CC3)(C1)C2 [Compound 30, N-(4-((6,7-dimethoxyquinolin-4-yl)oxy)phenyl)-N-(3-(methoxymethyl)bicyclo[1.1.1]pentan-1-yl)cyclopropane-1,1-dicarboxamide]
> 20	COc1cc2nccc(Oc3ccc(NC(=O)C4(C(=O)NC56CC(NC(C)=O)(C5)C6)CC4)cc3)c2cc1OC [Compound 13, N-(3-acetamidobicyclo[1.1.1]pentan-1-yl)-N-(4-((6,7-dimethoxyquinolin-4-yl)oxy)phenyl)cyclopropane-1,1-dicarboxamide]

tested on: hepatocellular carcinoma (HCC); assay: not given; conditions: HCC patients taking Stivarga (Regorafenib); cited from earlier work

SMILES	median overall survival
CNC(=O)c1cc(Oc2ccc(NC(=O)Nc3ccc(Cl)c(C(F)(F)F)c3)c(F)c2)ccn1 [Regorafenib]	about 10.6 months

tested on: hepatocellular carcinoma (HCC); assay: not given; conditions: clinical; cited from earlier work

SMILES	incidence of adverse events (AEs) compared to Regorafenib
COc1cc2nccc(Oc3ccc(NC(=O)C4(C(=O)Nc5ccc(F)cc5)CC4)cc3)c2cc1OC [Cabozantinib]	higher incidence of adverse events

tested on: hepatocellular carcinoma (HCC); assay: not given; conditions: HCC patients, Sorafenib vs placebo; cited from earlier work

SMILES	increase of survival rate compared to a placebo [months]
CNC(=O)c1cc(Oc2ccc(NC(=O)Nc3ccc(Cl)c(C(F)(F)F)c3)cc2)ccn1 [Sorafenib]	2.8

same assay, conditions: HCC patients, Sorafenib; cited from earlier work

SMILES	median survival rate
CNC(=O)c1cc(Oc2ccc(NC(=O)Nc3ccc(Cl)c(C(F)(F)F)c3)cc2)ccn1 [Sorafenib]	about 10.7 months
